Test results published in patent US6737383B1, “Herbicidal oxadiazolidines” (priority 1999, dated 2004).

Assays:
[1] = system: bedstraw; assay: Test B pre/postemergence bedstraw; assay type: in vivo, Galium aparine
Method in brief: (§1)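 Herbicidal effect was estimated by eye on a ten-point control scale after plants spent twelve to sixteen days in a greenhouse following soil or foliar treatment. Foliar sprays targeted plants at one to four leaves; all doses were formulated in a non-phytotoxic solvent with surfactant.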

[2] = system: blackgrass; assay: Test B pre/postemergence blackgrass; assay type: in vivo, Alopecurus myosuroides
Method in brief: as §1

[3] = system: surinam grass; assay: Test B pre/postemergence surinam grass; assay type: in vivo, Brachiaria decumbens
Method in brief: as §1

[4] = system: cocklebur; assay: Test B pre/postemergence cocklebur; assay type: in vivo, Xanthium strumarium
Method in brief: as §1

[5] = system: corn; assay: Test B pre/postemergence corn; assay type: in vivo, Zea mays
Method in brief: as §1

[6] = system: crabgrass; assay: Test B pre/postemergence crabgrass; assay type: in vivo, Digitaria sanguinalis
Method in brief: as §1

[7] = system: giant foxtail; assay: Test B pre/postemergence giant foxtail; assay type: in vivo, Setaria faberii
Method in brief: as §1

[8] = system: morningglory; assay: Test B pre/postemergence morningglory; assay type: in vivo, Ipomoea hederacea
Method in brief: as §1

[9] = system: pigweed; assay: Test B pre/postemergence pigweed; assay type: in vivo, Amaranthus retroflexus
Method in brief: as §1

[10] = system: rape; assay: Test B pre/postemergence rape; assay type: in vivo, Brassica napus
Method in brief: as §1

[11] = system: soybean; assay: Test B pre/postemergence soybean; assay type: in vivo, Glycine max
Method in brief: as §1

[12] = system: sugar beet; assay: Test B pre/postemergence sugar beet; assay type: in vivo, Beta vulgaris
Method in brief: as §1

[13] = system: velvetleaf; assay: Test B pre/postemergence velvetleaf; assay type: in vivo, Abutilon theophrasti
Method in brief: as §1

[14] = system: wheat; assay: Test B pre/postemergence wheat; assay type: in vivo, Triticum aestivum
Method in brief: as §1

[15] = system: wild oat; assay: Test B pre/postemergence wild oat; assay type: in vivo, Avena fatua
Method in brief: as §1

[16] = system: purple nutsedge; assay: Test B pre/postemergence purple nutsedge; assay type: in vivo, Cyperus rotundus
Method in brief: as §1

[17] = Preemergence, Rate 62 g/ha, scale of 0 to 10 where 0 is no effect and 10 is complete control
[18] = Preemergence, Rate 250 g/ha, scale of 0 to 10 where 0 is no effect and 10 is complete control
[19] = Preemergence, Rate 500 g/ha, scale of 0 to 10 where 0 is no effect and 10 is complete control
[20] = Rate 62 g/ha, Postemergence, scale of 0 to 10 where 0 is no effect and 10 is complete control
[21] = Rate 125 g/ha, Postemergence, scale 0 to 10
[22] = Rate 125 g/ha, Preemergence, scale of 0 to 10 where 0 is no effect and 10 is complete control
[23] = Rate 500 g/ha, Postemergence, scale 0 to 10, 0 no effect, 10 complete control

For `CC(C)=CCCC(C)=CCn1c(=O)on(C(=O)N(c2ccc(F)cc2)C(C)C)c1=O` [Compound 262], the “Bedstraw plant response rating” value [1, 17] was 0, the “Bedstraw plant response rating” value [1, 18] was 0 and the “Plant response rating, Bedstraw” value [1, 19] was 0. The “Bedstraw plant response rating” value [1, 20] was 0, the “Bedstraw plant response rating” value [1, 21] was 0 and the “Bedstraw plant response rating” value [1, 22] was 0. The “Blackgrass plant response rating” value [2, 17] was 0, the “Blackgrass plant response rating” value [2, 18] was 2 and the “Plant response rating, Blackgrass” value [2, 19] was 4. The “Blackgrass plant response rating” value [2, 20] was 0, the “Blackgrass plant response rating” value [2, 21] was 0 and the “Blackgrass plant response rating” value [2, 22] was 0. For the same molecule, the “Plant response rating (0 to 10; 0 is no effect, 10 is complete control), Blackgrass” value ([2]; Rate 250 g/ha, Postemergence) was 0, the “Blackgrass plant response rating” value [2, 23] was 0 and the “B. signalgrass plant response rating” value [3, 17] was 0. The “B. signalgrass plant response rating” value [3, 18] was 0, the “Plant response rating, B. signalgrass” value [3, 19] was 0 and the “B. signalgrass plant response rating” value [3, 20] was 0. The “B. signalgrass plant response rating” value ([3]; Rate 125 g/ha, Postemergence, scale 0 (no effect) to 10 (complete control)) was 0, the “B. signalgrass plant response rating” value [3, 22] was 0 and the “Plant response rating (0 to 10; 0 is no effect, 10 is complete control), B. signalgrass” value ([3]; Rate 250 g/ha, Postemergence) was 0. For the same molecule, the “B. signalgrass plant response rating” value [3, 23] was 0, the “Cocklebur plant response rating” value [4, 17] was 0 and the “Cocklebur plant response rating” value [4, 18] was 0. For the same molecule, the “Plant response rating, Cocklebur” value [4, 19] was 0, the “Cocklebur plant response rating” value [4, 20] was 0 and the “Cocklebur plant response rating” value [4, 21] was 0. The “Cocklebur plant response rating” value [4, 22] was 0, the “Plant response rating (0 to 10; 0 is no effect, 10 is complete control), Cocklebur” value ([4]; Rate 250 g/ha, Postemergence) was 0 and the “Cocklebur plant response rating” value [4, 23] was 0. The “Corn plant response rating” value [5, 17] was 0, the “Corn plant response rating” value [5, 18] was 0 and the “Plant response rating, Corn” value [5, 19] was 0. The “Corn plant response rating” value [5, 20] was 0, the “Corn plant response rating” value [5, 21] was 0 and the “Corn plant response rating” value [5, 22] was 0. For the same molecule, the “Plant response rating (0 to 10; 0 is no effect, 10 is complete control), Corn” value ([5]; Rate 250 g/ha, Postemergence) was 0, the “Corn plant response rating” value [5, 23] was 0 and the “Crabgrass plant response rating” value [6, 17] was 0. For the same molecule, the “Crabgrass plant response rating” value [6, 18] was 2, the “Plant response rating, Crabgrass” value [6, 19] was 3 and the “Crabgrass plant response rating” value [6, 22] was 2. The “Plant response rating (0 to 10; 0 is no effect, 10 is complete control), Crabgrass” value ([6]; Rate 250 g/ha, Postemergence) was 0, the “Crabgrass plant response rating” value [6, 23] was 0 and the “Giant foxtail plant response rating” value [7, 17] was 0. For the same molecule, the “Plant response rating, Giant foxtail” value [7, 19] was 7, the “Giant foxtail plant response rating” value [7, 22] was 3 and the “Plant response rating (0 to 10; 0 is no effect, 10 is complete control), Giant foxtail” value ([7]; Rate 250 g/ha, Postemergence) was 0. For the same molecule, the “Giant foxtail plant response rating” value [7, 23] was 0, the “Morningglory plant response rating” value [8, 17] was 0 and the “Morningglory plant response rating” value [8, 18] was 0. The “Plant response rating, Morningglory” value [8, 19] was 0, the “Morningglory plant response rating” value [8, 22] was 0 and the “Plant response rating (0 to 10; 0 is no effect, 10 is complete control), Morningglory” value ([8]; Rate 250 g/ha, Postemergence) was 5. For the same molecule, the “Morningglory plant response rating” value [8, 23] was 7, the “Redroot pigweed plant response rating” value [9, 17] was 0 and the “Redroot pigweed plant response rating” value [9, 18] was 0. For the same molecule, the “Plant response rating, Redroot pigweed” value [9, 19] was 0, the “Redroot pigweed plant response rating” value [9, 22] was 0 and the “Plant response rating (0 to 10; 0 is no effect, 10 is complete control), Redroot pigweed” value ([9]; Rate 250 g/ha, Postemergence) was 3. The “Redroot pigweed plant response rating” value [9, 23] was 4, the “Rape plant response rating” value [10, 17] was 0 and the “Rape plant response rating” value [10, 18] was 0. For the same molecule, the “Plant response rating, Rape” value [10, 19] was 0, the “Rape plant response rating” value [10, 22] was 0 and the “Plant response rating (0 to 10; 0 is no effect, 10 is complete control), Rape” value ([10]; Rate 250 g/ha, Postemergence) was 0. The “Rape plant response rating” value [10, 23] was 0, the “Soybean plant response rating” value [11, 17] was 0 and the “Soybean plant response rating” value [11, 18] was 0. The “Plant response rating, Soybean” value [11, 19] was 0, the “Soybean plant response rating” value [11, 22] was 0 and the “Soybean plant response rating” value [11, 23] was 4. The “Sugarbeets plant response rating” value [12, 17] was 0, the “Sugarbeets plant response rating” value [12, 18] was 0 and the “Plant response rating, Sugarbeets” value [12, 19] was 0. The “Sugarbeets plant response rating” value [12, 22] was 0, the “Sugarbeets plant response rating” value [12, 23] was 0 and the “Velvetleaf plant response rating” value [13, 17] was 0. For the same molecule, the “Velvetleaf plant response rating” value [13, 18] was 0, the “Plant response rating, Velvetleaf” value [13, 19] was 0 and the “Velvetleaf plant response rating” value [13, 22] was 0. For the same molecule, the “Velvetleaf plant response rating” value [13, 23] was 2, the “Wheat plant response rating” value [14, 17] was 0 and the “Wheat plant response rating” value [14, 18] was 0. For the same molecule, the “Plant response rating, Wheat” value [14, 19] was 0, the “Wheat plant response rating” value [14, 22] was 0 and the “Wheat plant response rating” value [14, 23] was 0. For the same molecule, the “Wild oats plant response rating” value [15, 17] was 0, the “Wild oats plant response rating” value [15, 18] was 0 and the “Plant response rating, Wild oats” value [15, 19] was 0. For the same molecule, the “Wild oats plant response rating” value [15, 22] was 0, the “Wild oats plant response rating” value [15, 23] was 0 and the “Nutsedge plant response rating” value [16, 17] was 0. The “Nutsedge plant response rating” value [16, 18] was 0, the “Plant response rating, Nutsedge” value [16, 19] was 0 and the “Nutsedge plant response rating” value [16, 22] was 0. For the same molecule, the “Plant response rating (0 to 10; 0 is no effect, 10 is complete control), Nutsedge” value ([16]; Rate 250 g/ha, Postemergence) was 0 and the “Nutsedge plant response rating” value [16, 23] was 0.
